Source: patent US5147876A, “2,6-di,2,4,6-, 2,5,6-tri and 2,4,5,6-tetra-substituted pyrimidines, their pharmaceutically acceptable salts, pharmaceutical compositions containing same and their use in the treatment of neurological diseases” (Mitsui Petrochemical Industries, Ltd., priority 1988, dated 1992)

Experiments:
[1] = tested on: neuro-2a (mouse neuroblastoma cells); experiment: Action on neuro-2a: proportion of cells containing outgrown neurites; assay type: cell-based; settings: mean ± S.D.
Outline: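 Mouse neuro-2a cells at 1,000 cells/well in DMEM with 10% FCS were cultured one day at 37 °C, 5% CO2, then glutaraldehyde-fixed and methylene-blue-stained. The proportion of cells bearing a neurite at least twice the cell's long diameter was counted over >200 cells; up to 6 concentrations, triplicate runs.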

[2] = tested on: NS-20Y (mouse neuroblastoma cells); experiment: Activity on NS-20Y cells: appearance of neurites; assay type: cell-based
Outline: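 Mouse neuroblastoma NS-20Y cells were grown in polyornithine-coated dishes in DMEM with 10 % FCS, 100 units/ml penicillin G sodium and 100 micrograms/ml streptomycin sulfate, at 37° C under 5 % carbon dioxide, and exposed to compound. Cells were fixed with 4 % glutaraldehyde, stained with 0.05 % methylene blue, and the fraction bearing neurites at least twice the cell's long diameter was counted microscopically.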

[3] = tested on: rats with crushed sciatic nerves; experiment: Twitch tension of hind paw in rats with crushed sciatic nerves; assay type: in vivo, rat (male Wistar)
Experimental: (§1) The therapeutic effect of the compound of the invention was tested on rats having crushed sciatic nerves as a model of peripheral nervous disorder using (1) a change in the action of the hind paw with the crushed sciatic nerves and (2) a change in the weight of the muscle as an index of the course of degeneration and regeneration of peripheral nerves.
(§2) In the experiment, male Wistar rats (6 weeks old), seven per group, were used. The sciatic nerves were crushed by a method similar to the method of Yamatsu et al. (see Kiyomi Yamatsu, Takenori Kaneko, Akifumi Kitahara and Isao Ohkawa, Journal of Japanese Pharmacological Society, 72, 259-268 (1976) and the method of Hasegawa et al. (see Kazuo Hasegawa, Naoji Mikuni and Yutaka Sakai, Journal of Japanese Pharmacological Society, 74, 721-734 (1978). Specifically, under anesthesia with pentobarbital (40 mg/kg, i.p.), the left side sciatic nerve was exposed at the femur, and a specific site of the exposed sciatic nerve was crushed for 30 seconds by using a hemostat. After the crushing, the operation site was immediately sutured. Thereafter, vincristine known to retard the regeneration of the peripheral nerve was intraperitoneally administered in a dose of 100 g/kg once a week.
(§3) Compounds of the invention were selected as test drugs, and administered intraperitoneally once a day from the day of crushing to 30th day from then. To a control group, only 0.9 % saline was administered.
Twitch tension, which is a transient tension incident to contraction of the dominated muscles that occurs by electrical stimulation or the like of motor nerves, as is the case with the interdigit distance to be described, is considered to reflect functional changes of the nerves and muscles.
[…] J. Neurosci. Methods, 19, 259 (1987)]. Specifically, the hair on the hind paw of rats was shaven, and coated with Cardiocream (a product of Nihon Denko K.K.). Then, to the skin of the hind paw, electrodes with an alligator were attached The cathode was attached to the rear portion of the trochiter, and the […], to a site 1 cm rearwardly of the […] electrode and 1 cm toward its back. The rat was fixed on its back, and the hind paw to be measured was fixed perpendicularly. A silk yarn, about 20 cm long, was connected at one end to the third efferent toe joint of the hind paw to be measured and at the other end to a tension transducer. Isotonic contractions of the third muscle digitus flexus were recorded on a polygraph. Electrical stimulation was effected at a voltage of 100V for a continuous duration of 1 msec. with rectangular waves at a frequency of 2 Hz. The static tension was 15 to 30 g, and 10 stimulations were repeated 3 times with intervals of 15 seconds. The contracting force was expressed as tension (g). From the measured values of both paws, the recovery ratio (%, left/right) of the contracting force of the paw with crushed nerves was calculated.

[4] = tested on: rats with crushed sciatic nerves; experiment: Weight of muscle extensor digitorum longus in rats with crushed sciatic nerves; assay type: in vivo, rat (male Wistar); settings: thirty days after operation, mean ± S.D.
Experimental: as §1, §2, §3
It is known that removal of a nerve or its disorder causes atorphy of the muscle which is under its control, and the atrophy is gradually cured by re-control by the nerve. For this reason, a change in the weight of the muscle, which is quantitative, was selected as an index. Thirty days after the operation, the muscles extensor digitorum longus of both hind paws which are muscles under the control of sciatic nerves were extracted under anesthesia, and their weights were measured. The ratio of the weight of the muscle extensor digitorum longus on the crushed side to that of normal side was calculated and expressed in percentage (%).

[5] = tested on: rats with lesioned nigral dopaminergic nerve cells; experiment: Motor imbalance (methamphetamine-induced rotation) after 6-hydroxydopamine lesion and transplantation of fetal cerebral cells; assay type: in vivo, rat (female Wistar)
Experimental: Nigral dopaminergic nerve cells at the left side of the brain of 4-week old female Wistar rats (body weight 100 g) were lesioned by injecting a very small quantity of 6-hydroxydopamine. […] Upon administration of methamphethamine (5 mg/kg, i.p.) to the rats having the lesioned nigral dopaminergic nerve cells, they began rotational movement toward the lesioned side.
After two weeks from the destruction by the administration of the drug, portions of the […] containing dopamine cells (i.e., substantial nigra and the tagmentum at the abdomen side) were cut from the brain of a fetal rat of 14 to 17 days of age, cut finely, and treated with trypsin. Then, the extracted tissues were incubated at 37° C. for 30 minutes, and the tissues were subjected to pipetting to form a suspension. Five microliters of the suspension was transplanted each into two sites of the caudate nucleus of the lesioned side (10 microliters in total, about 10^5 cells)
Compound No. 168 of the invention was administered in a dose of 156 mg/kg (i.p.) for 4 days from the day of transplantation, then with a suspension of 7 days, for 10 days in a dose of 50 mg/kg (i.p.) from the 11th day. Compound No. 296 was administered in a dose of 153 mg/kg, and then 50 mg/kg, in accordance with the same schedule.
Compound No. 3144 was also administered in accordance with the same schedule in a dose of 135 mg/kg, and then 45 mg/kg.
The rotational movements induced by administration of methamphetamine were examined 2 weeks and 1 week before, and 2 (or 3), 4, 6 and 8 weeks after, the transplantation and the administration of the drug. The number of rotational movements for the first one minute was counted at intervals of 10 minutes after the administration of methamphetamine, and the total number of rotational movements counted six times was averaged to find a mean number of the rotational movements.

Acute toxicity on mice = assay type: in vivo; settings: mouse, in vivo, ip, 24 hours after administration; read-out: Estimated LD50
Experimental: The acute toxicity of the compounds of the invention was examined by the following method.
Male ddy-strain 5-week old mice, 4-6- per group, were used as experimental animals. Each of the compounds was intraperitoneally (i.p.), and the toxicity of the compound was assessed 24 hours after the administration.

[6] = tested on: rats having crushed sciatic nerves; experiment: Interdigit distance in rats with crushed sciatic nerves; assay type: in vivo, rat (male Wistar); settings: 30 mg/kg, i.p.
Experimental: as §1
as §2, with “Thereafter, vincristine known to retard the regeneration of the peripheral nerve was intraperitoneally administered in a dose of 100 g/kg once a week.” left out
By a method similar to the method of Hasegawa [Hasegawa, K., Experientia, 34, 750-751 (1978)], the distance between the first and fifth digits of the hind paw was measured.
The ratio of the measured distance to the interdigit distance in a normal hind paw was calculated and expressed in percentage (%). […]

[7] = Table 14, 30 mg/kg i.p. once a day, 30 days, mean ± S.D., 168: *3 p < 0.01, 296: *2 p < 0.05
[8] = 3 W after transplantation, i.p. 168: 156 then 50, 296: 153 then 50, 3144: 135 then 45 mg/kg
[9] = 4 W after transplantation, i.p. 168: 156 then 50, 296: 153 then 50, 3144: 135 then 45 mg/kg
[10] = 6 W after transplantation, i.p. 168: 156 then 50, 296: 153 then 50, 3144: 135 then 45 mg/kg
[11] = 8 W after transplantation, i.p. 168: 156 then 50, 296: 153 then 50, 3144: 135 then 45 mg/kg
[12] = -1 W (before transplantation and drug)

| SMILES | Number of cells having neurites with a length at least two times the diameter of each cell/total number of cells ([1]; 0.1 mM) [%] | Number of cells having neurites with a length at least two times the diameter of each cell/total number of cells ([1]; 0.3 mM) [%] | Number of cells in which neurites appeared/total number of cells ([2]; 24 hours, 0.1 mM) | Number of cells in which neurites appeared/total number of cells ([2]; 48 hours, 0.1 mM) | Twitch tension left/right [3, 7] [%] | Weight of muscle extensor digitorum longus left/right ([4]; 30 mg/kg, *2 p < 0.05) [%] | mean number of the rotational movements [5, 8] | mean number of the rotational movements [5, 9] | mean number of the rotational movements [5, 10] | mean number of the rotational movements [5, 11] | mean number of the rotational movements [5, 12] | LD50 at 24 h (Acute toxicity on mice) [mg/kg] | also measured |
| --- | --- | --- | --- | --- | --- | --- | --- | --- | --- | --- | --- | --- | --- |
| CN(C(=O)c1ccccc1)c1ccnc(N2CCC(c3ccccc3)CC2)n1 [Compound 168, 4-(N-methylbenzamino)-2-(4-phenylpiperidino)pyrimidine p-toluenesulfonate] | 35.7 ± 0.8 | 14.6 ± 4.3 | 26/50 | 20/55 | 51.2 ± 13.6 | 59.4 ± 11.8 | 9.1 ± 5.6 | 4.5 ± 4.5 | 1.5 ± 3.9 | 0.8 ± 2.1 | 13.3 ± 7.8 | > 1000 | Number of cells having neurites with a length at least two times the diameter of each cell/total number of cells ([1]; 0.05 mM): 23.8 ± 2%; Number of cells having neurites with a length at least two times the diameter of each cell/total number of cells ([1]; 0.2 mM): 24.4 ± 6.9%; Number of cells in which neurites appeared/total number of cells ([2]; 24 hours, 0.25 mM): 12/50; Twitch tension left/right ([3]; Table 14, 10 mg/kg i.p. once a day, 30 days, mean ± S.D., *2 p < 0.05): 48.4 ± 11.8%; Weight of muscle extensor digitorum longus left/right ([4]; 10 mg/kg): 52.1 ± 5.4% |
| CN(C(=O)c1ccco1)c1ccnc(N2CCC(c3ccccc3)CC2)n1 [Compound 296] | 44.4 ± 5.5 | 22.4 ± 3.0 | 9/49 | 2/50 | 48.1 ± 9.4 | 56.9 ± 9.7 | 8.4 ± 5.0 | 3.1 ± 3.4 | 0.9 ± 2.3 | 1.0 ± 1.5 | 13.2 ± 4.1 | > 1000 | – |
| CN1C(=O)Cc2cnc(N3CCN(C(c4ccccc4)c4ccc(Cl)cc4)CC3)nc21 (stereo not shown) [Compound 3144] | 34.1 ± 3.8 | 44.5 ± 9.7 | – | – | – | – | 7.7 ± 4.7 | 4.0 ± 5.6 | 0.2 ± 2.2 | 1.1 ± 4.1 | 14.1 ± 4.7 | 500 to 1000 | Number of cells having neurites with a length at least two times the diameter of each cell/total number of cells ([1]; 0.03 mM): 20.8 ± 4.7%; Number of cells having neurites with a length at least two times the diameter of each cell/total number of cells ([1]; 1 mM): 32.2 ± 1.6%; Twitch tension left/right ([3]; Table 15, 30 mg/kg, 18th days): 54.5 ± 17.1%; Twitch tension left/right ([3]; Table 15, 30 mg/kg, 23rd days): 57.9 ± 15.5%; Recovery of the interdigit distance ([6]; 18th days): 72.7 ± 14.0%; Recovery of the interdigit distance ([6]; 23rd days): 83.8 ± 12.2% |
